Results published in patent publication US20260158149A1, “GLYCOSYLATED PRODRUGS” (UNIVERSITEIT LEIDEN, priority 2021, published 2026).
Entries after “also recorded” stand apart in the source; their conditions may differ. Like-named read-outs stand apart in the source and are kept apart here.

Key:
[1] = zebrafish, in vivo
Protocol: (§3) Zebrafish embryos at 2 hpf received a chemical treatment, as indicated, with daily refreshment of the solutions, until 5 dpf. At 5 dpf, the larvae were collected in an Eppendorf tube and 100 μL of ice-cold glucose buffer was added to each sample. The larvae were homogenized using a BulletBlender® for 3 min at 8,000 rpm. The homogenates were then centrifuged at 4° C. for 8 min at 11000 rpm and the supernatant was stored at −20° C. Whole-body glucose concentrations were determined using a Glucose Colorimetric Assay kit (Cayman Chemical, USA), according to the manufacturer's instructions. In each experiment, three biological replicates were used for each treatment group, and the colorimetric assay was performed using technical duplicates.

[2] = tested on: neutrophils migrated to the wounded area; experiment: Tail fin amputation assay: neutrophil migration to the wounded area; assay type: in vivo, Zebrafish (Danio rerio); details: for reduction in neutrophil migration in the presence of MZ31: GBA2 inhibitor MZ31; for migration of neutrophils towards the wounded area: wild type larvae, 4 h after tail wounding; for inhibition of neutrophil migration in Gr deficient larvae: gr mutant line (gr-/-)
Protocol: Zebrafish (Danio rerio) were maintained and handled according to the guidelines from the Zebrafish Model Organism Database (https://zfin.org/) and in compliance with the directives of the local animal welfare committee of Leiden University. To maintain circadian rhythmicity, adult fish were exposed to a 14 h light and 10 h dark cycle. Fertilization was performed by natural spawning at the beginning of the light period. Fertilized eggs were collected and raised at 28° C. in egg water (60 μg/ml Instant Ocean sea salts and 0.0025% methylene blue). The following zebrafish lines were used in this study: AB/TL wild type, the transgenic lines Tg(mpx:GFP^i114/mpeg1:mCherry^umsF001) (Bernut et al., (2014). Mycobacterium abscessus cording prevents phagocytosis and promotes abscess formation. Proc Natl Acad Sci USA 111, E943-952; Renshaw et al., (2006). A transgenic zebrafish model of neutrophilic inflammation. Blood 108, 3976-3978), and Tg(9xGCRE-HSV.UI123:EGFP)^ia20 (Benato et al., (2014). A living biosensor model to dynamically trace glucocorticoid transcriptional activity during development and adult life in zebrafish. Mol Cell Endocrinol 392, 60-72), and the mutant lines gba2^−/− (Lelieveld et al., (2019). Role of beta-glucosidase 2 in aberrant glycosphingolipid metabolism: model of glucocerebrosidase deficiency in zebrafish. J Lipid Res 60, 1851-1867) and gr^s357 (Ziv et al., (2013). An affective disorder in zebrafish with mutation of the glucocorticoid receptor. Mol Psychiatry 18, 681-691).
(§1) For the tail fin amputation experiments, 3 days post fertilization (dpf) larvae from the Tg(mpx:GFP^i114/mpeg1:mCherry^umsF001) line were anesthetized in 0.02% buffered aminobenzoic acid ethyl ester (tricaine) in egg water and placed on a 2% agarose-coated petri dish. The tails were partially amputated with a 1 mm sapphire blade (World Precision Instruments) under a Leica M165C stereomicroscope (Leica Microsystems, Wetzlar, Germany). Chemical treatment (or 0.1% DMSO as vehicle treatment) was started at 2 h before the amputation (pretreatment) and was continued for 4 h after the tail fin amputation (20 larvae per group, unless indicated otherwise), at which time point the larvae were fixed in 4% paraformaldehyde (PFA) overnight at 4° C. and stored at 4° C. until further examination. In some experiments, a 24 h treatment with miglustat, ME656 or MZ31 was started at 2 dpf, and these treatments were continued during the pretreatment and treatment with the other chemicals. For imaging of larvae from the Tg(mpx:GFP^i114/mpeg1:mCherry^umsF001) line, a LeicaMZ16FA fluorescence stereomicroscope with LAS 3.7 software was used. Neutrophils were detected by GFP fluorescence and macrophages by mCherry fluorescence. The neutrophil numbers were determined by blinded manual counting in a pre-determined area. When larvae from gba2^−/− or gr^s357mutant lines were used, neutrophil labeling was performed with the TSA fluorescein detection kit (PerkinElmer) for specific staining of Myeloperoxidase (Mpx)-positive cells, following the manufacturer's instructions.

[3] = tested on: Gr; experiment: Transactivation activity of Gr in Tg(9xGCRE-HSV.UI23:EGFP) reporter line; assay type: in vivo, Zebrafish (Danio rerio); details: 24 h treatment, 3 dpf larvae
Protocol: The Tg(9xGCRE-HSV.UI23:EGFP)^ia20 zebrafish reporter line expresses enhanced green fluorescent protein (EGFP) under the control of a promoter containing an array of nine GREs. To study the effect of chemical treatments on the transactivation activity of the Gr, 15 zebrafish embryos per group (2 dpf) were treated with the indicated compounds for 24 hours. The transactivation activity of Gr induced by the treatments was assessed using a LeicaMZ16FA fluorescence stereomicroscope supported by LAS 3.7 software. The integrated intensity of the EGFP signal in the larvae was determined using ImageJ software.

[4] = tested on: il1b, il6, mmp9, mmp13, il8 mRNA; experiment: qPCR of pro-inflammatory genes after tail wounding; assay type: in vivo, Zebrafish (Danio rerio)
Source text: as §1
(§2) For experiments in zebrafish, gene expression was measured using 3 dpf embryos. Groups of 15 larvae were collected in TRIzol reagent (Invitrogen) and mRNA was isolated using the miRNeasy mini kit (Qiagen), according to the manufacturer's instructions. For experiments in HeLa cells, samples were collected from a single well from 6 well plates (80% confluent) in TRIzol reagent and mRNA was isolated using the RNeasy mini kit. Zebrafish and cells samples were treated with DNAse utilizing the DNA-Free™ kit (Ambion). The cDNA synthesis was performed using iScript cDNA synthesis kit (Bio-Rad) using 1 μg of RNA per sample. For qPCR, 10 μM of forward and 10 μM of reverse primer, 12.5 μL of iQ SYBR Green Supermix (Bio-Rad), and 2 μL of cDNA were added to the qPCR reaction mixture. […] The qPCR reactions were performed on a MyiQ-single-color real-time PCR detection system (Bio-Rad) with initial denaturation for 3 min at 95° C. and 40 cycles of 15 s at 95.5° C., 15 s at 60° C., and 30 s at 72° C. Cycle threshold values (Ct values, i.e. the cycle numbers at which a threshold value of the fluorescence intensity was reached) were determined for each sample. The gene expression level for each sample was normalized using the expression of ppial (peptidylprolyl isomerase Ab (cyclophilin A)) for zebrafish samples, and 18S rRNA for human cells. The fold change per sample (compared to the respective control group) was calculated using the ΔΔCt method.

[5] = tested on: Gr target genes fkbp5, pck1 and nfkbiaa; experiment: qPCR of Gr target genes fkbp5, pck1, nfkbiaa; assay type: in vivo, Zebrafish (Danio rerio)
Protocol: as §2

[6] = zebrafish, in vivo; remark: listed apart in the source
Protocol: (§4) Zebrafish embryos at 2 hpf received a chemical treatment, as indicated, with daily refreshment of the solutions, until 96 hpf. Then, the treatments were stopped and embryos were incubated in egg water until 5 dpf to avoid cross-reactivity with the compounds of the cortisol antibody used in the ELISA. Then, the treatments were stopped and replaced with egg water. At 5 dpf, the larvae were collected in an Eppendorf tube and 100 μL of ice-cold phosphate-buffered saline (PBS) was added. The larvae were homogenized using a BulletBlender® for 3 min at 8,000 rpm. Ethyl acetate was added to the homogenate and the supernatant was gathered and vaporized. A volume of 150 μl of 0.2% Bovine serum albumin (Sigma Aldrich) dissolved in phosphate-buffered saline (PBS) was added to the samples and frozen. Whole-body cortisol of the zebrafish larvae was determined by ELISA (Demeditec Diagnostics GmbH, Kiel-Wellsee, Germany), following the manufacturer's instructions. In each experiment, three biological replicates were used for each treatment group, and the colorimetric assay was performed using technical duplicates.

[7] = biological target: T1, human GR (Homo sapiens, UniProt P04150); experiment: PolarScreen Glucocorticoid Receptor Competitor Assay; details: glucosylation or gentiobiosylation of Pdn
T1 sequence (P04150 1-777): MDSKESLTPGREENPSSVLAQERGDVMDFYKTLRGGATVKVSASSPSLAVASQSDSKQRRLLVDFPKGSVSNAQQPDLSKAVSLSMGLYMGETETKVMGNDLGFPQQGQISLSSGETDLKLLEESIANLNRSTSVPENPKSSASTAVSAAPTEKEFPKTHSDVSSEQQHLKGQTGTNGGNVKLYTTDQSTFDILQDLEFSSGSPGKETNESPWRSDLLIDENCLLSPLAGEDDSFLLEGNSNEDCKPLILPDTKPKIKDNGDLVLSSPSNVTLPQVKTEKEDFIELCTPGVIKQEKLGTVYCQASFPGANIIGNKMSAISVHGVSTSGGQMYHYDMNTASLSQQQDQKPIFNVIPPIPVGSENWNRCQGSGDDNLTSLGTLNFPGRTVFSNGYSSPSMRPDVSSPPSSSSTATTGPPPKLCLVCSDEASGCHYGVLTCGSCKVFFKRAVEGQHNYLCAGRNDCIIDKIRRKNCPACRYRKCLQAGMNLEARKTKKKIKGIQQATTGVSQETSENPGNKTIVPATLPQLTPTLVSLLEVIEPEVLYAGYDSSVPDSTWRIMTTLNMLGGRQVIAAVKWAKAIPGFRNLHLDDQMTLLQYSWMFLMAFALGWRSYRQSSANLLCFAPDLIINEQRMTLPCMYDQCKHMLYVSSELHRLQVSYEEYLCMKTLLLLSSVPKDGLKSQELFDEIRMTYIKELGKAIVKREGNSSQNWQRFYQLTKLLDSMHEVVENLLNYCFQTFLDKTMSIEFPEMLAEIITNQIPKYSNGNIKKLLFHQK

[8] = Whole-body cortisol measurement using ELISA; details: 5 dpf larvae treated from 2 hpf, non-wounded
Protocol: as §4

[9] = tested on: regenerated tail fin; experiment: Regeneration of the tail fin after wounding; assay type: in vivo, Zebrafish (Danio rerio); details: 5 dpf larvae, wounded at 2 dpf
Protocol: When the regeneration of the tail fins after wounding or the larval body length was used as a readout, chemical treatments of the embryos were started at 2 hours post fertilization (hpf) and continued until 5 dpf. During this period, solutions were refreshed daily. At 5 dpf, larvae were imaged using a LeicaMZ16FA fluorescence stereomicroscope supported by LAS 3.7 software, and the length of the larvae was measured using ImageJ software (15 larvae per treatment group). For the regeneration experiments, tail fins were amputated at 2 dpf and larvae were imaged at 5 dpf (15 larvae per treatment group). The newly grown tissue can be distinguished from the old tissue, enabling precise measurement of the size of the newly grown tissue using ImageJ software.

[10] = Whole-body glucose measurement in larvae; details: 5 dpf larvae treated from 2 hpf, non-wounded
Protocol: as §3

[11] = tested on: macrophages migrated to the wounded area; experiment: Tail fin amputation assay: macrophage migration; assay type: in vivo, Zebrafish (Danio rerio); details: wild type larvae, 4 h after wounding
Protocol: Zebrafish (Danio rerio) were maintained and handled according to the guidelines from the Zebrafish Model Organism Database (https://zfin.org/) and in compliance with the directives of the local animal welfare committee of Leiden University. To maintain circadian rhythmicity, adult fish were exposed to a 14 h light and 10 h dark cycle. Fertilization was performed by natural spawning at the beginning of the light period. Fertilized eggs were collected and raised at 28° C. in egg water (60 μg/ml Instant Ocean sea salts and 0.0025% methylene blue). […]
For the tail fin amputation experiments, 3 days post fertilization (dpf) larvae from the Tg(mpx:GFP^i114/mpeg1:mCherry^umsF001) line were anesthetized in 0.02% buffered aminobenzoic acid ethyl ester (tricaine) in egg water and placed on a 2% agarose-coated petri dish. […] For imaging of larvae from the Tg(mpx:GFP^i114/mpeg1:mCherry^umsF001) line, a LeicaMZ16FA fluorescence stereomicroscope with LAS 3.7 software was used. Neutrophils were detected by GFP fluorescence and macrophages by mCherry fluorescence. The neutrophil numbers were determined by blinded manual counting in a pre-determined area. […]

| SMILES | whole body glucose level [1] | whole body glucose level under wounding conditions with MZ31 [1] | reduction in neutrophil migration in the presence of MZ31 [2] | migration of neutrophils towards the wounded area [2] | transactivation activity of Gr (GFP signal in GRE:GFP reporter fish line) [3] | expression of the pro-inflammatory genes il1b, il6 and il8 [4] | expression of Gr target genes fkbp5, pck1 and nfkbiaa [5] | whole body cortisol level [6] | whole body cortisol level under wounding conditions with MZ31 [6] | decrease in the binding affinity relative to Pdn [7] [fold] | inhibition of neutrophil migration in Gr deficient larvae [2] | wounding-induced increase in expression of il1b, il6 and mmp9 [4] | whole body cortisol level [8] | tissue regeneration (length of regenerated tail fin) [9] | whole body glucose level [10] | migration of macrophages [11] | wounding-induced increase in expression of il1b, il6, mmp9 and mmp13 [4] |
| --- | --- | --- | --- | --- | --- | --- | --- | --- | --- | --- | --- | --- | --- | --- | --- | --- | --- |
| C[C@]12C=CC(=O)C=C1CC[C@@H]1[C@@H]2[C@@H](O)C[C@@]2(C)[C@H]1CC[C@]2(O)C(=O)CO[C@@H]1O[C@H](CO)[C@@H](O)[C@H](O)[C@H]1O [GPdn, 21-O-Glucose-Prednisolone] | did not increase the glucose level | reduced upon treatment with MZ31 | independent of GBA2 activity | inhibited the neutrophil migration | neither GPdn nor GbPdn induced the transactivation activity of the Gr | these effects were similar to those observed upon Pdn and GPdn treatment | lack of effect | only slightly reduced the cortisol concentrations | reduced upon treatment with MZ31 | ~30 |  |  |  |  |  |  |  |
| C[C@H]1C[C@H]2[C@@H]3CCC4=CC(=O)C=C[C@]4(C)[C@@]3(Cl)[C@@H](O)C[C@]2(C)[C@@]1(O)C(=O)CO [Bec, beclomethasone] |  |  |  | decreases the migration of neutrophils; also recorded: inhibits neutrophil migration; also recorded: inhibited the neutrophil migration | large increase in GFP signal |  |  |  |  |  | absent | strongly suppressed | decrease in cortisol level; also recorded: decreased the cortisol level; also recorded: significantly larger decrease | decrease | increased the glucose concentration | leaves the migration of macrophages unaffected |  |
| C[C@@H]1C[C@H]2[C@@H]3CCC4=CC(=O)C=C[C@]4(C)[C@@]3(F)[C@@H](O)C[C@]2(C)[C@@]1(O)C(=O)CO[C@@H]1O[C@H](C(=O)O)[C@@H](O)[C@H](O)[C@H]1O [GDex, dexamethasone-glucuronide] |  |  | independent of GBA2 activity | inhibits neutrophil migration; also recorded: inhibited the neutrophil migration | did not induce the transactivation activity of the Gr |  | did not induce the transactivation activity of the Gr |  |  |  | absent |  | very minor decrease in cortisol level; also recorded: only slightly reduced the cortisol concentrations |  | did not increase the glucose level | without any effect on macrophage migration | strongly reduced |
